{
  "source": "patent US20100234348A1",
  "about": "“COMPOSITIONS AND METHODS FOR POTENTIATING ANTIBIOTIC ACTIVITY” (TRUSTEES OF BOSTON UNIVERSITY, priority 2006, published 2010)",
  "test_system": "quinolone resistant strain laboratory S7",
  "assay": "Growth of quinolone resistant strain S7 with ciprofloxacin and CB101 forms",
  "assay_type": "cell-based",
  "settings": "Staphylococcus",
  "description": "The quinolone resistant strain laboratory S7 was tested for growth in the presence of ciprofloxacin at 0.5 μg/mL (MIC at 1 μg/mL) with 20 μg/mL of CB101 (racemic mixture), the (+) enantiomeric form of CB101 or the (−) enantiomeric form of CB101.",
  "data": [
    {"smiles": "O=C(O)c1cn(C2CC2)c2cc(N3CCNCC3)c(F)cc2c1=O", "note": "[ciprofloxacin]", "values": [
      {"measurement": "MIC", "result": 1, "unit": "µg/mL"}
    ]}
  ]
}
